{"source": "patent US7575640B2", "about": "“Method for producing sugar and sugar-containing products from sugar-containing plant raw materials” (Zuckerforschung Tulln Gesellschaft m.b.H., priority 2003, dated 2009)", "key": {"[1]": {"system": "yeasts", "assay": "efficacy relative to yeasts", "type": "cell-based", "conditions": "compared with thermophilic bacteria"}, "[2]": {"system": "thermophilic bacteria", "assay": "pH drop (acid formation) in liquid culture medium inoculated with crude juice from sugar beet extraction, 65° C.", "type": "cell-based, thermophilic bacteria (mixed culture)", "conditions": "65° C.; for pH / ΔpH/h: 10 mg/l added at pH 6.47 (5.10 h)", "description": "If a sugar-containing substrate, e.g. a sugar-containing liquid culture medium, as it is common in microbiology, is either non-sterilized or incubated after inoculation with a bacterial strain, an acid formation will occur which is the easiest to recognize by a drop in the pH. The same phenomenon will occur when incubating normal sugar-containing plant juices, e.g. beet juice. In an industrial process, e.g. in the recovery of sugar juice from sugar beets, a drop in the pH by degradation of sugar means a loss of sugar and a need for an alkalizing agent. Moreover, a drop in the pH with an increase in the germ content in the substrate often is associated with an unpleasant gas and nitrite formation.\n(§1) A liquid culture medium, as commonly used in microbiology and consisting of 10 g of Bacto-peptone, 5 g of meat extract, 5 g of yeast extract, 1 g of glucose, 1 g of K2HPO4, 0.1 g of MgSO4*7H2O and 0.01 g of FeSO4*7H2O per liter of distilled water, is sterilized in conventional manner for 20 min at 120° C. and inoculated, in a vessel kept at a temperature of 65° C., with 20 ml of crude juice from a large-scale sugar beet extraction, wherein the pH is registered on a recorder. Upon the growth of thermophilic bacteria, the pH drops progressively. This indicates a microorganism-caused acid formation.\nA mixed culture according to Example 1 is prepared."}, "[3]": {"system": "pure culture strain DSMZ 457", "assay": "pH drop in liquid culture medium inoculated with pure culture strain", "type": "cell-based", "description": "as §1\nA liquid culture medium, as in Example 1, is inoculated with a pure culture strain DSMZ 457 of the Deutsche Sammlung für Mikroorganismen und Zellkulturen GmbH. A pH drop starting after 1 hour can be stopped by two additions of 0.2 ml of a 1% alcoholic solution of myristic acid (C14), corresponding to a concentration of merely 4 mg/l. After 4 hours, a renewed pH drop starts which can be stopped for further 7 hours by a further addition of 2 mg/l, i.e. in sum 6 mg/l."}, "[4]": {"system": "mesophilic mixed culture", "assay": "pH drop in mixed culture incubated at 35° C.", "type": "cell-based", "description": "as §1\nA mixed culture according to Example 1 is prepared, yet incubated at 35° C. A pH drop starting after 5 hours cannot be stopped by 11 successive additions of 1 ml of a 1% alcoholic solution of myristic acid per liter culture, corresponding to 110 mg/l, and a further addition of 4 ml, i.e. in sum 150 mg/l."}, "[5]": {"system": "thermophilic bacteria", "assay": "determination of MIC by stepwise addition until stabilization of the pH, 65° C.", "type": "cell-based, thermophilic bacteria (mixed culture)", "description": "To illustrate the antimicrobial activity within the scope of sugar production, examples are carried out with […] compounds by way of example. […] Upon the growth of thermophilic bacteria, the pH drops progressively. This indicates a microorganism-caused acid formation. […] The fatty acid compounds used in this Example are myristic acid and lauric acid, and their potassium salts, respectively. In this case, the acids were used both individually and in a 1:1 mixture, the salts were exclusively used in a 1:1 mixture."}, "[6]": {"conditions": "Time 4.50 h, 2×2 mg/l added between pH 6.81 and 6.51"}, "[7]": {"conditions": "Time 6.25 h, 11×10 and 1×40 mg/l being added between pH 6.55 and 6.30"}, "[8]": {"conditions": "Time 6.50 h, 11×10 and 1×40 mg/l added between pH 6.55 and 6.30"}}, "note": "Read-outs that look alike come from different tables or passages of the source.", "data": [{"compound": "CCCCCCCCCCCCCC(=O)O", "note": "[myristic acid]", "values": [{"measurement": "efficacy relative to yeasts", "setting": "[1]", "value": "markedly lower efficacy"}, {"measurement": "duration of effectiveness (pH drop stopped)", "setting": "[2]; 10 mg/l, mixed culture", "value": "at least 14 h"}, {"measurement": "effect on pH drop", "setting": "[2]; 10 mg/l, mixed culture", "value": "suddenly and lastingly stopped"}, {"measurement": "pH", "setting": "[2]; Time 5.50 h", "value": 6.47}, {"measurement": "ΔpH/h", "setting": "[2]; Time 5.50 h", "value": 0.00}, {"measurement": "pH", "setting": "[2]; Time 6 h", "value": 6.47}, {"measurement": "ΔpH/h", "setting": "[2]; Time 6 h", "value": 0.00}, {"measurement": "pH", "setting": "[2]; Time 7 h", "value": 6.48}, {"measurement": "ΔpH/h", "setting": "[2]; Time 7 h", "value": "−0.01"}, {"measurement": "pH", "setting": "[2]; Time 10 h", "value": 6.50}, {"measurement": "ΔpH/h", "setting": "[2]; Time 10 h", "value": "−0.01"}, {"measurement": "pH", "setting": "[2]; Time 13 h", "value": 6.53}, {"measurement": "ΔpH/h", "setting": "[2]; Time 13 h", "value": "−0.01"}, {"measurement": "pH", "setting": "[2]; Time 16 h", "value": 6.55}, {"measurement": "ΔpH/h", "setting": "[2]; Time 16 h", "value": "−0.01"}, {"measurement": "pH", "setting": "[2]; Time 19 h", "value": 6.53}, {"measurement": "ΔpH/h", "setting": "[2]; Time 19 h", "value": 0.01}, {"measurement": "time until renewed pH drop", "setting": "[3]; 4 mg/l", "value": 4, "unit": "hours"}, {"measurement": "pH", "setting": "[3]; [6]", "value": 6.51}, {"measurement": "ΔpH/h", "setting": "[3]; [6]", "value": 0.60}, {"measurement": "pH", "setting": "[3]; Time 5 h, 4 mg/l", "value": 6.50}, {"measurement": "ΔpH/h", "setting": "[3]; Time 5 h, 4 mg/l", "value": 0.02}, {"measurement": "pH", "setting": "[3]; Time 6 h, 4 mg/l", "value": 6.51}, {"measurement": "ΔpH/h", "setting": "[3]; Time 6 h, 4 mg/l", "value": "−0.01"}, {"measurement": "pH", "setting": "[3]; Time 7 h, 4 mg/l", "value": 6.51}, {"measurement": "ΔpH/h", "setting": "[3]; Time 7 h, 4 mg/l", "value": 0.00}, {"measurement": "pH", "setting": "[3]; Time 8 h, 4 mg/l", "value": 6.51}, {"measurement": "ΔpH/h", "setting": "[3]; Time 8 h, 4 mg/l", "value": 0.00}, {"measurement": "pH", "setting": "[3]; Time 9 h, 4 mg/l", "value": 6.48}, {"measurement": "ΔpH/h", "setting": "[3]; Time 9 h, 4 mg/l", "value": 0.03}, {"measurement": "ΔpH/h", "setting": "[3]; Time 10.2 h, 4 mg/l, further 2 mg/l added at pH 6.39", "value": 0.08}, {"measurement": "pH", "setting": "[3]; Time 10.2 h, 4 mg/l, further 2 mg/l added at this pH", "value": 6.39}, {"measurement": "pH", "setting": "[3]; Time 11 h, in sum 6 mg/l", "value": 6.39}, {"measurement": "ΔpH/h", "setting": "[3]; Time 11 h, in sum 6 mg/l", "value": 0.00}, {"measurement": "pH", "setting": "[3]; Time 12 h, in sum 6 mg/l", "value": 6.39}, {"measurement": "ΔpH/h", "setting": "[3]; Time 12 h, in sum 6 mg/l", "value": 0.00}, {"measurement": "pH", "setting": "[3]; Time 13 h, in sum 6 mg/l", "value": 6.39}, {"measurement": "ΔpH/h", "setting": "[3]; Time 13 h, in sum 6 mg/l", "value": 0.00}, {"measurement": "pH", "setting": "[3]; Time 14 h, in sum 6 mg/l", "value": 6.39}, {"measurement": "ΔpH/h", "setting": "[3]; Time 14 h, in sum 6 mg/l", "value": 0.00}, {"measurement": "pH", "setting": "[3]; Time 15 h, in sum 6 mg/l", "value": 6.39}, {"measurement": "ΔpH/h", "setting": "[3]; Time 15 h, in sum 6 mg/l", "value": 0.00}, {"measurement": "further time pH drop stopped", "setting": "[3]; further 2 mg/l, in sum 6 mg/l", "value": 7, "unit": "hours"}, {"measurement": "concentration that stops the pH drop", "setting": "[3]; two additions of 2 mg/l, pure culture", "value": 4, "unit": "mg/l"}, {"measurement": "pH", "setting": "[4]; [7]", "value": 6.41}, {"measurement": "ΔpH/h", "setting": "[4]; [7]", "value": 0.56}, {"measurement": "pH", "setting": "[4]; [8]", "value": 6.30}, {"measurement": "ΔpH/h", "setting": "[4]; [8]", "value": 0.44}, {"measurement": "pH", "setting": "[4]; Time 6.75 h, in sum 150 mg/l", "value": 6.19}, {"measurement": "ΔpH/h", "setting": "[4]; Time 6.75 h, in sum 150 mg/l", "value": 0.44}, {"measurement": "pH", "setting": "[4]; Time 7.00 h, in sum 150 mg/l", "value": 6.06}, {"measurement": "ΔpH/h", "setting": "[4]; Time 7.00 h, in sum 150 mg/l", "value": 0.52}, {"measurement": "pH", "setting": "[4]; Time 7.25 h, in sum 150 mg/l", "value": 5.94}, {"measurement": "ΔpH/h", "setting": "[4]; Time 7.25 h, in sum 150 mg/l", "value": 0.48}, {"measurement": "concentration that stops the pH drop", "setting": "[4]; pH drop cannot be stopped", "value": "> 150", "unit": "mg/l"}, {"measurement": "MIC", "setting": "[5]; dissolved in ethanol, 10 mg/l steps, maximum 150 mg/l, 65° C., read-out: Min. Inhibitory Conc. (MIC)", "value": 10, "unit": "mg/L"}, {"measurement": "MIC", "setting": "[5]; dissolved in ethanol, steps of 2 mg/l, read-out: Min. Inhibitory Conc. (MIC)", "value": 6, "unit": "mg/L"}, {"measurement": "MIC", "setting": "[5]; text summary of Example 9, read-out: MIC (concentration successfully used)", "value": 6000, "unit": "mg/L"}]}]}
